The source made the active and inactive calls.
Legend:
[1] = target: T1, Coagulation factor XII (Homo sapiens, UniProt P00748); type: functional;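 further: activated factor XIIa alpha cleaving a fluorogenic AMC peptide substrate; inhibitor potency from loss of enzyme activity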
T1 sequence (P00748 whole entry): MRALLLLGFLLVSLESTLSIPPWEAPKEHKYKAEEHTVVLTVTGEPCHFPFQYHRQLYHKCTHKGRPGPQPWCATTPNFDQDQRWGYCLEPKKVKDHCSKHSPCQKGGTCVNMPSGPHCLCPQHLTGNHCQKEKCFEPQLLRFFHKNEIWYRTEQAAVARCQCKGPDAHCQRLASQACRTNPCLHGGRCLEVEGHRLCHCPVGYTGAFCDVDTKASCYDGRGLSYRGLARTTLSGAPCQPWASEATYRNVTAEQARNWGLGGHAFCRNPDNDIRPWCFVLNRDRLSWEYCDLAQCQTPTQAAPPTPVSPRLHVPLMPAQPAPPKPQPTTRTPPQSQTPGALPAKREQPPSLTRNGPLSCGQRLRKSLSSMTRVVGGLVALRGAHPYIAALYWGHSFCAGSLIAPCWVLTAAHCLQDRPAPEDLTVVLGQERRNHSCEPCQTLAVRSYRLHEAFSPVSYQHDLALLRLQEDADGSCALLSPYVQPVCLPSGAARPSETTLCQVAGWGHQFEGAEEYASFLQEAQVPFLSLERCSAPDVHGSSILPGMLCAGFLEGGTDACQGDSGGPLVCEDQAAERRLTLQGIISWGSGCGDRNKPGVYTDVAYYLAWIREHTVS

[2] = target: T2, Insulin-degrading enzyme (Homo sapiens, UniProt P14735); experiment: recombinant IDE activation, cell-free – biochemical, fluorescence polarization, counter-screen for IDE activator project, dose response (AID 588681)
T2 sequence (P14735 whole entry): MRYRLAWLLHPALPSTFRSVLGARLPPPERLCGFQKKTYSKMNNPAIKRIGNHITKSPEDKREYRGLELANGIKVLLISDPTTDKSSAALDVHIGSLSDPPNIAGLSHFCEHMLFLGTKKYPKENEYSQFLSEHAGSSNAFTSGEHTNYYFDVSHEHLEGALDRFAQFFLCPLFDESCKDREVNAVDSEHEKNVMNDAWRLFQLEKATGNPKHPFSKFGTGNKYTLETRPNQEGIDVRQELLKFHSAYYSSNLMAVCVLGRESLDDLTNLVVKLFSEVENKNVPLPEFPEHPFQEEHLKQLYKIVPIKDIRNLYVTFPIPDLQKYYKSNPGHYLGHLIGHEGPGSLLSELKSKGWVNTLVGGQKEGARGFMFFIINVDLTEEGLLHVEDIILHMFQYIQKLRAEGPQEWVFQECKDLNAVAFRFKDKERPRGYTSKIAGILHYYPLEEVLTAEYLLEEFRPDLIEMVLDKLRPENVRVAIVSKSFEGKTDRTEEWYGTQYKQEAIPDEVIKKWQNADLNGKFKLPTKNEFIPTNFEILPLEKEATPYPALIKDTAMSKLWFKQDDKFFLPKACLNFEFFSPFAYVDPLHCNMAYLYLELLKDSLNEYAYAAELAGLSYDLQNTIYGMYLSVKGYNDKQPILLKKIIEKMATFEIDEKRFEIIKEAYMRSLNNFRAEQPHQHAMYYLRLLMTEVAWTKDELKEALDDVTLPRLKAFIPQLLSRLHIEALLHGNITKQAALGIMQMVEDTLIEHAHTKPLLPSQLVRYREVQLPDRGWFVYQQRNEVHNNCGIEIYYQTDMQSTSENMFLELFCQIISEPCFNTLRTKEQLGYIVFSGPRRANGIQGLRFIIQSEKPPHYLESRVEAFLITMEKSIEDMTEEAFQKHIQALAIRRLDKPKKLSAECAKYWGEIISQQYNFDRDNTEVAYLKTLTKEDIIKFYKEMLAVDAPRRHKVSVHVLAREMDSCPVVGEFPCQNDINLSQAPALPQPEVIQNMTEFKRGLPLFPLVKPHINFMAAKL

[3] = target: T2, Insulin-degrading enzyme; experiment: cellular IDE activation of Abeta substrate cleavage – fluorescence polarization, HEK cells, dose response (AID 588439); type: functional, cell-based
[4] = test system: HEK293; experiment: membrane integrity loss in HEK cells – cell-based, fluorescence, cytotoxicity control for IDE activator project, dose response (AID 588440); type: functional; details: Homo sapiens;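 further: cytotoxicity by LDH release measuring loss of membrane integrity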
[5] = test system: HEK293; experiment: optical interference in Abeta FP readout, dose response, artefact control for IDE activator project, biochemical, fluorescence polarization (AID 588442); type: functional, cell-based; details: Homo sapiens
[6] = target: T3, Sentrin-specific protease 8 (Homo sapiens, UniProt Q96LD8); experiment: inhibition of human SENP8 cleavage activity – biochemical, luminescence, SAR follow-up (AID 504501); type: functional
T3 sequence (Q96LD8 whole entry): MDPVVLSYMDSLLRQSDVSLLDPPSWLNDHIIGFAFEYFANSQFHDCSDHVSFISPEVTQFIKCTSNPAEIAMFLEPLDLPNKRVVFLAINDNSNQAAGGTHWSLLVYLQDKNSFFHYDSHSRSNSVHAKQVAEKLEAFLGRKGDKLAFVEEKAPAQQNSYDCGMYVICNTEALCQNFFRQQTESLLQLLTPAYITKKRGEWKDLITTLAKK

[7] = target: T4, Caspase-3 (Homo sapiens, UniProt P42574); experiment: SAR Analysis of small molecule inhibitors of Sentrin-specific proteases (SENPs) using a Caspase-3 Selectivity assay. [Related pubchem assays (depositor defined):AID2540, AID2599, AID434973, AID489001]; type: functional
T4 sequence (P42574 whole entry): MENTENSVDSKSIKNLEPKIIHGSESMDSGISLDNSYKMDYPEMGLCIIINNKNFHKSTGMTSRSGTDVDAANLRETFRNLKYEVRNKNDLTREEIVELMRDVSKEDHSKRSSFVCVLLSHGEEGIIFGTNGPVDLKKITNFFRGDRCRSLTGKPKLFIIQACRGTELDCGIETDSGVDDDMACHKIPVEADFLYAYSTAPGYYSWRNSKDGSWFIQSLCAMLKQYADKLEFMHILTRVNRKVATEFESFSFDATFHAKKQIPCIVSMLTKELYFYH

[8] = target: T5, Sentrin-specific protease 6 (Homo sapiens, UniProt Q9GZR1); experiment: SAR Analysis of small molecule inhibitors of Sentrin-specific protease 6 (SENP6) using a Luminescent assay. [Related pubchem assays (depositor defined):AID2582, AID2599]; type: functional
T5 sequence (Q9GZR1 whole entry): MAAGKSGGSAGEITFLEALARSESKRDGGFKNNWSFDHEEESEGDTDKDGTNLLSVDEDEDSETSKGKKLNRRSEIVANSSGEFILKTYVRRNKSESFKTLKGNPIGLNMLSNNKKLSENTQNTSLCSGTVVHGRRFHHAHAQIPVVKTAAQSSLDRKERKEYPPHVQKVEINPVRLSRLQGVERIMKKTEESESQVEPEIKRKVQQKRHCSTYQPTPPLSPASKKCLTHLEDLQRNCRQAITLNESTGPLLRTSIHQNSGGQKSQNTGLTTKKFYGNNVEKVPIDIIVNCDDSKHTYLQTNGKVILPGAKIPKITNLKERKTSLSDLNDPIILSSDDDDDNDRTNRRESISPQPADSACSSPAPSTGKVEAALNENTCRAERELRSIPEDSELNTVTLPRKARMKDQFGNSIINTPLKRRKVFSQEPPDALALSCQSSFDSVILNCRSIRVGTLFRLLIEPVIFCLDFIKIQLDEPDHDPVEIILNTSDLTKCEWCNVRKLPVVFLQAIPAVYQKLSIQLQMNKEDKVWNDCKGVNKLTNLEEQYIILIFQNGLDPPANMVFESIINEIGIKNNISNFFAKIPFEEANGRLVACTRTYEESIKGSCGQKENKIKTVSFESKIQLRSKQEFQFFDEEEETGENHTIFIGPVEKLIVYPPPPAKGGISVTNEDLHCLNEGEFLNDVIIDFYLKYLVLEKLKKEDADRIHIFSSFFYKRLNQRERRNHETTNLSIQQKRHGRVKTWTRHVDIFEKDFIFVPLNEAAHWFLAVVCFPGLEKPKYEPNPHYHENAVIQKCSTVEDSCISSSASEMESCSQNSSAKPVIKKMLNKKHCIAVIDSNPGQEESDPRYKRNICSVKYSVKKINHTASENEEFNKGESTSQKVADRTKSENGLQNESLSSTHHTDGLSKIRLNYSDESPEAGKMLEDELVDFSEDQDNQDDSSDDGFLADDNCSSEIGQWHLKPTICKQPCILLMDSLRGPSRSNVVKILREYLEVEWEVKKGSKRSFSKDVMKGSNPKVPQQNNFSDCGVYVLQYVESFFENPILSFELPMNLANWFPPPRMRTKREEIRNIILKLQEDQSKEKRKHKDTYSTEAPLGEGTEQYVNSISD

[9] = target: T6, Sentrin-specific protease 7 (Homo sapiens, UniProt Q9BQF6); experiment: inhibition of human SENP7 cleavage activity – biochemical, luminescence, SAR follow-up (AID 504497); type: functional
T6 sequence (Q9BQF6 whole entry): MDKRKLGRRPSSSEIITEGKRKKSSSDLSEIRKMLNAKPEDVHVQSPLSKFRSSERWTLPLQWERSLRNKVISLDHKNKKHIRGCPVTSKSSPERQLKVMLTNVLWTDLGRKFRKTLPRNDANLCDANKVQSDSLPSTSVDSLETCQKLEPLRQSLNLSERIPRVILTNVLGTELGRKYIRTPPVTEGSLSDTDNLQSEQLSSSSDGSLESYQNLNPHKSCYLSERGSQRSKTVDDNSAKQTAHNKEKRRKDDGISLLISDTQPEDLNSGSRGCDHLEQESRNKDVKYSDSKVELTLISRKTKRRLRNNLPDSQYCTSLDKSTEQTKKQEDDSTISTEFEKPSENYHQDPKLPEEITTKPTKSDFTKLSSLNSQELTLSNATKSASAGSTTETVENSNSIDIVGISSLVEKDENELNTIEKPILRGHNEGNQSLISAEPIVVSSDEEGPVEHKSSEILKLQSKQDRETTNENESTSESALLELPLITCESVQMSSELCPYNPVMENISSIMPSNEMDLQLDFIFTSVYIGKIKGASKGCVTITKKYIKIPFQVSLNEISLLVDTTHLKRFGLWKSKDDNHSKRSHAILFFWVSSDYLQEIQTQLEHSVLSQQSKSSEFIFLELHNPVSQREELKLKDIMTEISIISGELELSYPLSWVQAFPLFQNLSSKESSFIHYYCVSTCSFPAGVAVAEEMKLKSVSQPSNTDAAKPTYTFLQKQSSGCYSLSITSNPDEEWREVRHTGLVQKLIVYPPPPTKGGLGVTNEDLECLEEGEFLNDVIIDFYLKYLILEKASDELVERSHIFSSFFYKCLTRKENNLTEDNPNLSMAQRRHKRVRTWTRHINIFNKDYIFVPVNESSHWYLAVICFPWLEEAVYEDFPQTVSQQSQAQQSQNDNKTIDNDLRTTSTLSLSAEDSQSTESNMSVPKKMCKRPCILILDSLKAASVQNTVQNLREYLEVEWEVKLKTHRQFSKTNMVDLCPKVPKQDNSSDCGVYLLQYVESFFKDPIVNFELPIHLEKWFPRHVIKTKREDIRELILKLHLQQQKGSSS

[10] = target: Voltage-gated inwardly rectifying potassium channel KCNH2 (Homo sapiens, UniProt Q12809); experiment: concentration-dependent hERG rescue from blockers – cell-based, thallium flux, dose response (AID 2121); type: ADME
Sequence of Voltage-gated inwardly rectifying potassium channel KCNH2 (Q12809 whole entry): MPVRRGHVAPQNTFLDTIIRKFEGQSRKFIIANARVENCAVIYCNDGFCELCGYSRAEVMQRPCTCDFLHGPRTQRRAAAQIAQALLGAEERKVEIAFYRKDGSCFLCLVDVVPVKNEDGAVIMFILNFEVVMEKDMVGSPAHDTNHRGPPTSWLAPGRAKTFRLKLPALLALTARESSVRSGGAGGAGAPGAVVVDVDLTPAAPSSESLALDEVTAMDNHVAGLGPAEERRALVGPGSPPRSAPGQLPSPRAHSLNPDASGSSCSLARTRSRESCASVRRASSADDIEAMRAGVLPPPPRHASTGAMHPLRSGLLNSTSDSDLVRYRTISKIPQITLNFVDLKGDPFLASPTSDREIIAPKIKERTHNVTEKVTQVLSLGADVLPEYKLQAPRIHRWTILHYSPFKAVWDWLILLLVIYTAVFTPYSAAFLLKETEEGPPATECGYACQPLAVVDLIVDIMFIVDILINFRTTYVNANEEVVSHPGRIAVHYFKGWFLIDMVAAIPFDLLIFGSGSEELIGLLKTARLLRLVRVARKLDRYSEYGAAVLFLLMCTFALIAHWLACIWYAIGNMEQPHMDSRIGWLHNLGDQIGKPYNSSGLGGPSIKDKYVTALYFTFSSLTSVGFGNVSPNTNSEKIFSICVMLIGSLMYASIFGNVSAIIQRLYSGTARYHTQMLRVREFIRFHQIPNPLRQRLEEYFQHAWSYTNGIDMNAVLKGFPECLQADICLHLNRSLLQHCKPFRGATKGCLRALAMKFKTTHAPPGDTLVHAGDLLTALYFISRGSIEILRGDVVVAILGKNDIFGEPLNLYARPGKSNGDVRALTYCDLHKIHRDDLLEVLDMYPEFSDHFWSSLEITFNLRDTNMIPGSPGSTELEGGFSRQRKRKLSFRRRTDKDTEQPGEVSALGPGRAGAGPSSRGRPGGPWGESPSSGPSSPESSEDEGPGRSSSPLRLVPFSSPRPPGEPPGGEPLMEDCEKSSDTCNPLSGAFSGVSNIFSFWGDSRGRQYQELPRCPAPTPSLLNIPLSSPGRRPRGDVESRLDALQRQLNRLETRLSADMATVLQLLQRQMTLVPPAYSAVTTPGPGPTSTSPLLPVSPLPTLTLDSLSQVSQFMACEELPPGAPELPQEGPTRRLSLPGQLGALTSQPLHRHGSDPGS

[11] = target: 26S proteasome non-ATPase regulatory subunit 14 (Homo sapiens, UniProt O00487); experiment: inhibition of proteasome subunit RPN11 – biochemical, fluorescence polarization, uHTS hits, confirmation (AID 602368); type: functional
Sequence of 26S proteasome non-ATPase regulatory subunit 14 (O00487 whole entry): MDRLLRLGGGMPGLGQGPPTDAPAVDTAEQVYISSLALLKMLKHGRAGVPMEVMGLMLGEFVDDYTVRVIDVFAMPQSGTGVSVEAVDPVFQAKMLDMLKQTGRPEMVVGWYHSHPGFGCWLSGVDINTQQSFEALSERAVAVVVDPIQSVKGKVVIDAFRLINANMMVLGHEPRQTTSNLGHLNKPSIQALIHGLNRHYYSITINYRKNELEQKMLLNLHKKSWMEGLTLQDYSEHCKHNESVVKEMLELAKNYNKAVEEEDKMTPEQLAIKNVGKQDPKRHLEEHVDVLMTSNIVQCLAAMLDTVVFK

[12] = target: 72 kDa type IV collagenase (Homo sapiens, UniProt P08253); experiment: Dose Response validation of uHTS RPN11 inhibitor hits using a MMP-2 Fluorescence assay.; type: functional
Sequence of 72 kDa type IV collagenase (P08253 whole entry): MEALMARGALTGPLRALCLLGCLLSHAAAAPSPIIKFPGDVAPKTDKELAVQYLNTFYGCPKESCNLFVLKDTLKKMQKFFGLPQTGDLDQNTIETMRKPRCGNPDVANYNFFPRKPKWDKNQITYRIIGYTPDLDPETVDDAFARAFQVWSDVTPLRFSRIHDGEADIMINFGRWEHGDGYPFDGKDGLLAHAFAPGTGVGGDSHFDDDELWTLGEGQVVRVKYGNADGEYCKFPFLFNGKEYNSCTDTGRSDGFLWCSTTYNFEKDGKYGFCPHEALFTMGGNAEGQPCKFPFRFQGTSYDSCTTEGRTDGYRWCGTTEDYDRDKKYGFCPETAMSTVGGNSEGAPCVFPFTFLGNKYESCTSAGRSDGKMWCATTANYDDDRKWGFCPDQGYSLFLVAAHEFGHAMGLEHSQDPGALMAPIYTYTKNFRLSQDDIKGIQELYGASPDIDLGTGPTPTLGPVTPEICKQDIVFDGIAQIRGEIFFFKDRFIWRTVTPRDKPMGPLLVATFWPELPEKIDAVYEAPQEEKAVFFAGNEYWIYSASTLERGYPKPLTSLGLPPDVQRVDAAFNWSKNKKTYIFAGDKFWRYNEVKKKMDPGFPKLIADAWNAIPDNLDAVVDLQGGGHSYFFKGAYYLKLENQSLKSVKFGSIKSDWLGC

[13] = target: Prothrombin (Bos taurus, UniProt P00735); experiment: thrombin protease inhibitors – biochemical, fluorescence polarization, uHTS hits, dose response (AID 602369); type: functional
[14] = Luminescence-based cell-based high throughput dose response assay to identify activators of the DAF-12 from the parasite S. stercoralis (ssDAF-12).; type: functional
[15] = target: T7, Oxysterols receptor LXR-beta (Homo sapiens, UniProt P55055); experiment: LXR agonists, Gal4 luciferase reporter, dose response, counter-screen for ssDAF-12 agonist project, cell-based, luminescence, HEK293, S. stercoralis campaign (AID 720737); type: functional; details: read-out: IC50 (the source's name)
T7 sequence (P55055 whole entry): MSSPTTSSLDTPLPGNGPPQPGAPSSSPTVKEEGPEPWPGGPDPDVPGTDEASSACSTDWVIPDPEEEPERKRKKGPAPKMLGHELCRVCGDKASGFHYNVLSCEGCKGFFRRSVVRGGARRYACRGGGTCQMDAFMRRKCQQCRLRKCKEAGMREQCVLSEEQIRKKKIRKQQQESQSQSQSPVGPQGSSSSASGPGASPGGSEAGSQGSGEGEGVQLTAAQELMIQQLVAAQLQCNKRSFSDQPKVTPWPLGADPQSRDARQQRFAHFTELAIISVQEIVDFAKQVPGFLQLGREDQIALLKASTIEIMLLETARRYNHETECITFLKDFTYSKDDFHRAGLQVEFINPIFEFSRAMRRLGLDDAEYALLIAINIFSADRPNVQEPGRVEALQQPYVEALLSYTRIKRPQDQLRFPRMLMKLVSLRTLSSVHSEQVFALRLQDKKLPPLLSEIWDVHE

[16] = target: Melanocortin receptor 4 (Homo sapiens, UniProt P32245); experiment: inhibitors of MC4R cAMP signaling – cell-based, TR-FRET, biased antagonists, dose response (AID 602298); type: functional;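 further: antagonist potency against agonist-stimulated cAMP production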
Sequence of Melanocortin receptor 4 (P32245 whole entry): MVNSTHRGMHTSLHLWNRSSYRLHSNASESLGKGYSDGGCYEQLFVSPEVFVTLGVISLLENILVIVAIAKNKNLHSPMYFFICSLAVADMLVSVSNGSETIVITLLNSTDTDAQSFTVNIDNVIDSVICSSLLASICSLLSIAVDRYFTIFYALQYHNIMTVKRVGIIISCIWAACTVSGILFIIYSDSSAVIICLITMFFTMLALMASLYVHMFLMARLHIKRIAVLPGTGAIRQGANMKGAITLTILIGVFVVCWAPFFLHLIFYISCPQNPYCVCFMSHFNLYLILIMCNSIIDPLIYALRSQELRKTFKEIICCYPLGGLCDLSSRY

[17] = cAMP pathway inhibition in counterscreen cell line – TR-FRET cAMP detection, counter-screen for MC4R biased antagonist project, dose response (AID 602305); type: functional, cell-based;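 further: U2OS cells stimulated with forskolin near its EC80 as the cAMP inducer; potency is for inhibition of forskolin-stimulated cAMP signaling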

COc1ccc(C(=O)N/N=C/c2cc3ccccc3nc2O)cc1
IC50 [1]: > 50 µM (inactive) | EC50 [2]: > 54.7 µM (inactive) | EC50 [3]: > 54.7 µM (inactive) | IC50 [4]: > 89.1 µM (inactive) | EC50 [5]: > 55.9 µM (inactive)

CS(=O)(=O)c1ccc(N/N=C/c2cn(Cc3ccccc3)c3ccccc23)cc1
IC50 [6]: > 99 µM (inactive) | IC50 [7]: > 99 µM (inactive) | IC50 [8]: > 99 µM (inactive) | IC50 [9]: > 99 µM (inactive)

O=C(CSc1nc2cc(Cl)ccc2s1)c1cc2ccccc2o1
EC50 [10]: 0.35 µM (active) | IC50 [11]: 24.5 µM (active) | IC50 [12]: 18.8 µM (active) | IC50 [13]: 28.5 µM (active) | IC50 [14]: > 67.5 µM (inactive) | EC50 [15]: > 67.5 µM (inactive)

CC(=N)C1=C(O)C2(C)C(=CC1=O)Oc1c(C(C)=O)c(O)c(C)c(O)c12 (configuration not stated)
IC50 [16]: > 64.6 µM (inactive) | IC50 [17]: > 64.6 µM (inactive)

— ChEMBL document CHEMBL1201862, “PubChem BioAssay data set” (2004)
